Biological target: T1, Human Recombinant Matriptase 2 (Homo sapiens, UniProt Q8IU80)
T1 construct: made in house
T1 sequence (Q8IU80 1-811): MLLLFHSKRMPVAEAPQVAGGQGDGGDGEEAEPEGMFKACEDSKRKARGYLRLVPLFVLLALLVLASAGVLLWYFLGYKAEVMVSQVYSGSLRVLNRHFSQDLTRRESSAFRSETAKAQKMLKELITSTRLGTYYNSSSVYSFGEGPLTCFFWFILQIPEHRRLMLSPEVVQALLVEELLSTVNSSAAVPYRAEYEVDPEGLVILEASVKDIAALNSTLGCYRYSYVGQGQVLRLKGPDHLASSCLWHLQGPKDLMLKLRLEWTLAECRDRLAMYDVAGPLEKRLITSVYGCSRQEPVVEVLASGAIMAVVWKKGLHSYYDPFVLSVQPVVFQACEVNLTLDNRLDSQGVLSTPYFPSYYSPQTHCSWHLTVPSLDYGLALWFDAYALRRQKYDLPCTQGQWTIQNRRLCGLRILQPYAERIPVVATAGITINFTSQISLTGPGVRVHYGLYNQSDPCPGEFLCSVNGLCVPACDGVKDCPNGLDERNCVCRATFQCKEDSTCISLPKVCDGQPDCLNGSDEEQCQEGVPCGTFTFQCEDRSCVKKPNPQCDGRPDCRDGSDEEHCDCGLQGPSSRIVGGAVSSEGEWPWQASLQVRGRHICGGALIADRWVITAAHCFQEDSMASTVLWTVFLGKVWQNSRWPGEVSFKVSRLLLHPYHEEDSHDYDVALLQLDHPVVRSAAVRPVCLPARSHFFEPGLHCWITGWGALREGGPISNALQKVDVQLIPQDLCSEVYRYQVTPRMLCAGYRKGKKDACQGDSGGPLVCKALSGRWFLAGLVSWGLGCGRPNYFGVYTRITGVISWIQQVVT
Assay: Matriptase 2 inhibition, fluorescence based assay (Method I)
Type: biochemical
Details: Table A; Ki of Matriptase-2 given as class symbols; read-out: Mat-2 Ki
Outline: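 In-house recombinant enzyme (3.5 nM), preincubated 30 min with compound, then Boc-Gln-Ala-Arg-AMC substrate (62 μM) in 50 mM Tris pH 7.5, 150 mM NaCl, 0.01% gelatin, 1% DMSO, 25 °C. Fluorescence (Ex 360/Em 480 nm) read 60 min after substrate; IC50 from variable-slope sigmoidal fit of % inhibition.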

Ki [nM]	SMILES
500 to 3000	Cc1cc(CS(=O)(=O)Nc2cc(Cn3c(C(=O)O)cc4ccc(CN)nc43)c3ccccc3c2)no1 [Compound 250, 6-(aminomethyl)-1-({3-[(5-methyl-1,2-oxazol-3-yl)methanesulfon-amido]naphthalen-1-yl}-methyl)-1H-pyrrolo[2,3-b]pyridine-2-carboxylic acid]
500 to 3000	NCc1ccc2cc(C(=O)O)n(Cc3cc(NS(=O)(=O)Cc4c(Cl)cccc4Cl)cc4ccccc34)c2n1 [Compound 251, 6-(aminomethyl)-1-({3-[(2,6-dichlorophenyl)-methanesulfonamido]-naphthalen-1-yl}methyl)-1H-pyrrolo[2,3-b]pyr-idine-2-carboxylic acid]
500 to 3000	NCc1ccc2cc(C(=O)O)n(Cc3cc(CS(=O)(=O)Cc4ccccc4)cc4ccccc34)c2n1 [Compound 252, 6-(aminomethyl)-1-{[3-(phenylmethanesulfon-ylmethyl)naphthalen-1-yl]methyl}-1H-pyrrolo-[2,3-b]pyridine-2-car-boxylic acid]
500 to 3000	COCCN1CCC(CS(=O)(=O)Nc2cc(Cn3c(C(=O)OCC4CCN(C)CC4)cc4ccc(CN)nc43)c3ccccc3c2)CC1 [Compound 253]
100 to 500	Cc1nc(CS(=O)(=O)Nc2cc(Cn3c(C(=O)O)cc4ccc(CN)nc43)c3ccccc3c2)cs1 [Compound 256, 6-(aminomethyl)-1-({3-[(2-methyl-1,3-thiazol-4-yl)methanesulfon-amido]naphthalen-1-yl}-methyl)-1H-pyrrolo[2,3-b]pyridine-2-carboxylic acid]
100 to 500	COC(=O)NCCNC(=O)c1cc2ccc(CN)nc2n1Cc1cc(NS(=O)(=O)CC[C@@H]2CCCN2)cc2ccccc12 [Compound 258, methyl N-(2-{[6-(amino-methyl)-1-[(3-{2-[(2S)-pyrrolidin-2-yl]ethane-sulfonamido}naphthalen-1-yl)methyl]-1H-pyr-rolo[2,3-b]pyridin-2-yl]-formamido}ethyl)car-bamate]
100 to 500	NCc1ccc2cc(C(=O)O)n(Cc3cc(NS(=O)(=O)[C@H]4CCNC4)cc4ccccc34)c2n1 [Compound 259, 6-(aminomethyl)-1-({3-[(3S)-pyrrolidine-3-sul-fonamido]naphthalen-1-yl}methyl)-1H-pyrrolo-[2,3-b]pyridine-2-car-boxylic acid]
100 to 500	NCc1ccc2cc(C(=O)OCCO)n(Cc3cc(NS(=O)(=O)CC[C@@H]4CCCN4)cc4ccccc34)c2n1 [Compound 260, 2-hydroxyethyl 6-(aminomethyl)-1-[(3-{2-[(2S)-pyrrolidin-2-yl]-ethanesulfonamido}naph-thalen-1-yl)methyl]-1H-pyrrolo[2,3-b]pyridine-2-carboxylate]
100 to 500	NCc1ccc2cc(C(=O)O)n(Cc3cc(NS(=O)(=O)CCCn4cnnn4)cc4ccccc34)c2n1 [Compound 264, 6-(aminomethyl)-1-({3-[3-(1H-1,2,3,4-tetrazol-1-yl)propanesulfonamido]-naphthalen-1-yl}methyl)-1H-pyrrolo[2,3-b]pyr-idine-2-carboxylic acid]
100 to 500	CCN(CC)CCS(=O)(=O)Nc1cc(Cn2c(C(=O)O)cc3ccc(CN)nc32)c2ccccc2c1 [Compound 265, 6-(aminomethyl)-1-({3-[2-(diethylamino)ethane-sulfonamido]naphthalen-1-yl}methyl)-1H-pyr-rolo[2,3-b]pyridine-2-carboxylic acid]
100 to 500	CC(C)(C)S(=O)(=O)N1CCC(CS(=O)(=O)Nc2cc(Cn3c(C(=O)O)cc4ccc(CN)nc43)c3ccccc3c2)CC1 [Compound 267, 6-(aminomethyl)-1-[(3-{[1-(2-methylpropane-2-sulfonyl)piperidin-4-yl]-methanesulfonamido}-naphthalen-1-yl)methyl]-1H-pyrrolo[2,3-b]pyr-idine-2-carboxylic acid]
100 to 500	CC(C)(C)OC(=O)N1CC[C@H](S(=O)(=O)Nc2cc(Cn3c(C(=O)O)cc4ccc(CN)nc43)c3ccccc3c2)C1 [Compound 268]
500 to 3000	CCOC(=O)c1cc2ccc(CN)nc2n1Cc1cc(NS(=O)(=O)CC[C@@H]2CCCN2)cc2ccccc12 [Compound 269, ethyl 6-(aminomethyl)-1-[(3-{2-[(2S)-pyrrolidin-2-yl]ethanesulfonamido}-naphthalen-1-yl)methyl]-1H-pyrrolo[2,3-b]pyr-idine-2-carboxylate]
500 to 3000	CC(C)OC(=O)c1cc2ccc(CN)nc2n1Cc1cc(NS(=O)(=O)CC[C@@H]2CCCN2)cc2ccccc12 [Compound 270, propan-2-yl 6-(amino-methyl)-1-[(3-{2-[(2S)-pyrrolidin-2-yl]ethane-sulfonamido}naphthalen-1-yl)methyl]-1H-pyrrolo-[2,3-b]pyridine-2-car-boxylate]
500 to 3000	CN(C)CCOC(=O)c1cc2ccc(CN)nc2n1Cc1cc(NS(=O)(=O)CC2CCNCC2)cc2ccccc12 [Compound 271, 2-(dimethylamino)ethyl 6-(aminomethyl)-1-({3-[(piperidin-4-yl)meth-anesulfonamido]naph-thalen-1-yl}methyl)-1H-pyrrolo[2,3-b]pyridine-2-carboxylate]
500 to 3000	C[C@@H]1OCCC1S(=O)(=O)Nc1cc(Cn2c(C(=O)O)cc3ccc(CN)nc32)c2ccccc2c1 (stereo partly drawn) [Compound 272, 6-(aminomethyl)-1-({3-[(2S)-2-methyloxolane-3-sulfonamido]naph-thalen-1-yl}methyl)-1H-pyrrolo[2,3-b]pyridine-2-carboxylic acid]
500 to 3000	CC(=O)OC(C)OC(=O)c1cc2ccc(CN)nc2n1Cc1cc(NS(=O)(=O)CC[C@@H]2CCCN2)cc2ccccc12 (stereo partly drawn) [Compound 275, 1-[6-(aminomethyl)-1-[(3-{2-[(2S)-pyrrolidin-2-yl]ethanesulfonamido}naphthalen-1-yl)methyl]-1H-pyrrolo[2,3-b]pyr-idine-2-carbonyloxy]-ethyl acetate]
500 to 3000	NCc1ccc2cc(C(=O)O)n(Cc3cc(NS(=O)(=O)[C@@H]4CCOC4)cc4ccccc34)c2n1 [Compound 276]
500 to 3000	CNCCOC(=O)c1cc2ccc(CN)nc2n1Cc1cc(NS(=O)(=O)CC2CCNCC2)cc2ccccc12 [Compound 278, 2-(methylamino)ethyl 6-(aminomethyl)-1-({3-[(piperidin-4-yl)methane-sulfonamido]naphthalen-1-yl}methyl)-1H-pyr-rolo[2,3-b]pyridine-2-carboxylate]
500 to 3000	NCc1ccc2cc(C(=O)O)n(Cc3cc(NS(=O)(=O)C4CCCCC4)cc4ccccc34)c2n1 [Compound 279, 6-(aminomethyl)-1-[(3-cyclohexanesulfon-amidonaphthalen-1-yl)-methyl]-1H-pyrrolo[2,3-b]pyridine-2-carboxylic acid]
500 to 3000	NCc1ccc2cc(C(=O)O)n(Cc3cc(NS(=O)(=O)[C@H]4CCOC4)cc4ccccc34)c2n1 [Compound 280, 6-(aminomethyl)-1-({3-[(3S)-oxolane-3-sulfon-amido]naphthalen-1-yl}-methyl)-1H-pyrrolo[2,3-b]pyridine-2-carboxylic acid]
500 to 3000	CN1CCC(COC(=O)c2cc3ccc(CN)nc3n2Cc2cc(NS(=O)(=O)CC[C@H]3CCCN3)cc3ccccc23)CC1 [Compound 281, (1-methylpiperidin-4-yl)methyl 6-(aminometh-yl)-1-[(3-{2-[(2R)-pyr-rolidin-2-yl]ethanesul-fonamido}naphthalen-1-yl)methyl]-1H-pyrrolo-[2,3-b]pyridine-2-car-boxylate]
500 to 3000	CNCCOC(=O)c1cc2ccc(CN)nc2n1Cc1cc(NS(=O)(=O)CC[C@@H]2CCCN2)cc2ccccc12 [Compound 283, 2-(methylamino)ethyl 6-(aminomethyl)-1-[(3-{2-[(2S)-pyrrolidin-2-yl]-ethanesulfonamido}-naphthalen-1-yl)methyl]-1H-pyrrolo[2,3-b]pyr-idine-2-carboxylate]
500 to 3000	CN(C)CCOC(=O)c1cc2ccc(CN)nc2n1Cc1cc(NS(=O)(=O)CC[C@@H]2CCCN2)cc2ccccc12 [Compound 284, 2-(dimethylamino)ethyl 6-(aminomethyl)-1-[(3-{2-[(2S)-pyrrolidin-2-yl]ethanesulfonamido}-naphthalen-1-yl)methyl]-1H-pyrrolo[2,3-b]pyr-idine-2-carboxylate]

SMILES	Ki [nM]
CC(C)(C)OC(=O)N1CCC(CCS(=O)(=O)Nc2cc(Cn3c(C(=O)O)cc4ccc(CN)nc43)c3ccccc3c2)CC1 [Compound 274, 6-(aminomethyl)-1-{[3-(2-{1-[(tert-butoxy)car-bonyl]piperidin-4-yl}-ethanesulfonamido)naph-thalen-1-yl]methyl}-1H-pyrrolo[2,3-b]pyridine-2-carboxylic acid]	500 to 3000

Reference: US20240400553A1, “AMINE BASED MATRIPTASE 2 INHIBITORS AND USES THEREOF” (Disc Medicine, Inc., priority 2023, published 2024)
